In test [1] the target is T1, human AXL (473-end) (Homo sapiens, UniProt P30530).
T1 construct: human AXL (473-end); purchased SignalChem, Canada
T1 sequence (P30530 473-894 limits assumed): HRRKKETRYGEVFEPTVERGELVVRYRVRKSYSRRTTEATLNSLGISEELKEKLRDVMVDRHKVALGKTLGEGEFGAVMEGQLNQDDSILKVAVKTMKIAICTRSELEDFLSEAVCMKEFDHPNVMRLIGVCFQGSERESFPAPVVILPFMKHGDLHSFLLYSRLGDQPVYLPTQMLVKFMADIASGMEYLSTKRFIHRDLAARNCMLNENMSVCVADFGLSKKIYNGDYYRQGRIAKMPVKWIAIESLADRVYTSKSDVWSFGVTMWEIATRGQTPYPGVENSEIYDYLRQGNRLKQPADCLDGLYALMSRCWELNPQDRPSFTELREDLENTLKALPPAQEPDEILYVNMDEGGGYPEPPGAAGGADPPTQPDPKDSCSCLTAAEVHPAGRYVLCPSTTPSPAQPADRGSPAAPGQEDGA
The experiment in a line: HTRF kinase activity biochemical assay, AXL.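 Further: phosphorylation of a biotinylated tyrosine kinase substrate detected via Eu3+-cryptate anti-TK antibody and streptavidin-XL665, fluorescence read after a 1 h incubation at room temperature.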 Conditions: recombinant kinase, 10 uM ATP, 30 minutes pre-incubation; read-out: HTRF AXL IC50.

For test [2], the target named is T2, human MER (528-end) (Homo sapiens, UniProt Q12866).
T2 construct: human MER (528-end); purchased Carnabio, Japan
T2 sequence (Q12866 528-999 limits assumed): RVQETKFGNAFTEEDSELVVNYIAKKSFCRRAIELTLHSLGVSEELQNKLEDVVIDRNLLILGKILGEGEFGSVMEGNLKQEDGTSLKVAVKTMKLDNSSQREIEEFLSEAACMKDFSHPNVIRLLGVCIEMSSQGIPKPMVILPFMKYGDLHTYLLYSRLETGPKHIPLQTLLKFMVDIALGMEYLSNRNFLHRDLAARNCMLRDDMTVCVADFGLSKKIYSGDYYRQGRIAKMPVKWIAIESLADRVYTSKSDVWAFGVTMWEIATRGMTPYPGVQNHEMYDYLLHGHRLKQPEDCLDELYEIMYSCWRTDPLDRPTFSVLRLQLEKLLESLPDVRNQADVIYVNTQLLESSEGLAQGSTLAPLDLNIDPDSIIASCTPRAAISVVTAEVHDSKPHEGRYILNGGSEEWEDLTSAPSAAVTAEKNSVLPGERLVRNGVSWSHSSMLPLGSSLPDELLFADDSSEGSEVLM
Description: HTRF kinase activity biochemical assay, MER.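 Further: phosphorylation of a biotin-tagged tyrosine kinase substrate detected by Eu3+-cryptate antibody and streptavidin-XL665 time-resolved fluorescence, read after 1 h at room temperature.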 Conditions: recombinant kinase, 10 uM ATP, 30 minutes pre-incubation; read-out: HTRF MERTK IC50. A general note: Time-resolved FRET reads energy transfer from a long-lived donor to a nearby acceptor.

The target of test [3] is T3, TYRO3 (455-end) (Homo sapiens, UniProt Q06418).
T3 construct: TYRO3 (455-end); purchased SignalChem, Canada
T3 sequence (Q06418 455-890 limits assumed): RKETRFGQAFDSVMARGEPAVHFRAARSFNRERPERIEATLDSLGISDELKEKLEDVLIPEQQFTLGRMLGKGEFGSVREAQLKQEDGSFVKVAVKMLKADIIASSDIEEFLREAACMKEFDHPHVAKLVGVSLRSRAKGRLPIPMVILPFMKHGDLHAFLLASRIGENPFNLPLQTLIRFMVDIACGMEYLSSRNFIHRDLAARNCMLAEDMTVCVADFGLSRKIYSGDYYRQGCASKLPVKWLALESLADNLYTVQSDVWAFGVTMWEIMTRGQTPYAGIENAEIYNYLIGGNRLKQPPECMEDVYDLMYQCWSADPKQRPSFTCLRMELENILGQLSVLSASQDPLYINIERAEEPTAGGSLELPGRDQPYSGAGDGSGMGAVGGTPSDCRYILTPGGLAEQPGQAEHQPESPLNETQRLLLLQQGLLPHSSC
The experiment in a line: HTRF kinase activity biochemical assay, TYRO3.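 Further: biotinylated tyrosine kinase substrate phosphorylation detected via streptavidin-XL665 and Eu3+-cryptate anti-phospho antibody time-resolved fluorescence, read after 1 h detection at room temperature, 384-well format.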 Conditions: recombinant kinase, 10 uM ATP, 30 minutes pre-incubation; read-out: HTRF TYRO IC50.

In general, IC50 refers to the concentration that inhibits the measured activity by half.

For `Cc1cnc(COc2ccc3nc(N4CC(c5cnc(Nc6cnn(C)c6)c(C(N)=O)n5)C4)oc3c2)s1` [Example 82, 3-[(1-methyl-1H-pyrazol-4-yl)amino]-6-(1-{6-[(5-methyl-1,3-thiazol-2-yl)methoxy]-1,3-benzoxazol-2-yl}azetidin-3-yl)pyrazine-2-carboxamide], the IC50 in test [1] is 3 nM; in test [2] it was less than 1 nM; in test [3], 150 nM.
On the same counts, the results for `Cn1cc(Nc2ncc(C3CN(c4nc5ccc(OCC(N)=O)cc5o4)C3)nc2C(N)=O)cn1` [Example 37, 6-{1-[6-(2-amino-2-oxoethoxy)-1,3-benzoxazol-2-yl]azetidin-3-yl}-3-[(1-methyl-1H-pyrazol-4-yl)amino]pyrazine-2-carboxamide] are 29 nM, 10 nM and 2130 nM.
For `Cn1cnc(COc2ccc3nc(N4CC(c5cnc(Nc6cnn(C)c6)c(C(N)=O)n5)C4)oc3c2)c1` [Example 98, 6-(1-{6-[(1-methyl-1H-imidazol-4-yl)methoxy]-1,3-benzoxazol-2-yl}azetidin-3-yl)-3-[(1-methyl-1H-pyrazol-4-yl)amino]pyrazine-2-carboxamide], the IC50 came out at 7 nM in test [1], 1.1 nM in test [2] and 1280 nM in test [3].
As to `CN(C)C(=O)COc1ccc2nc(N3CC(c4ccc(Nc5cnn(C)c5)c(C(N)=O)n4)C3)oc2c1` [Example 83, 6-(1-{6-[2-(dimethylamino)-2-oxoethoxy]-1,3-benzoxazol-2-yl}azetidin-3-yl)-3-[(1-methyl-1H-pyrazol-4-yl)amino]pyridine-2-carboxamide], the IC50 is 26 nM in test [1], 4 nM in test [2] and 6800 nM in test [3].
As for `Cn1cc(Nc2ncc(C3CN(c4nc5ccc(OCC(=O)N6CCC6)cc5o4)C3)nc2C(N)=O)cn1` [Example 73, 6-(1-{6-[2-(azetidin-1-yl)-2-oxoethoxy]-1,3-benzoxazol-2-yl}azetidin-3-yl)-3-[(1-methyl-1H-pyrazol-4-yl)amino]pyrazine-2-carboxamide], the IC50 was determined as 9 nM in test [1], 2 nM in test [2] and 1700 nM in test [3].
In the same order, the values of `Cn1cc(Nc2ncc(C3CN(c4nc5ccc(OCC6COC6)cc5o4)C3)nc2C(N)=O)cn1` [Example 41, 3-[(1-methyl-1H-pyrazol-4-yl)amino]-6-(1-{6-[(oxetan-3-yl)methoxy]-1,3-benzoxazol-2-yl}azetidin-3-yl)pyrazine-2-carboxamide] are 2 nM, less than 1 nM and 210 nM.
With `Cn1cc(Nc2ncc(C3CN(c4nc5ccc(C(=O)N6CCC[C@@H]6C(C)(C)O)cc5o4)C3)nc2C(N)=O)cn1` [Example 75, 6-(1-{6-[(2R)-2-(2-hydroxypropan-2-yl)pyrrolidine-1-carbonyl]-1,3-benzoxazol-2-yl}azetidin-3-yl)-3-[(1-methyl-1H-pyrazol-4-yl)amino]pyrazine-2-carboxamide], the values for the half-maximal inhibitory concentration (IC50) in test [1], in test [2] and in test [3] were 3 nM, less than 1 nM and 65 nM, respectively.
`Cn1cc(Nc2ncc(C3CN(c4nc5ccc(C6=CCCCC6)cc5o4)C3)nc2C(N)=O)cn1` [Example 6, 6-{1-[6-(cyclohex-1-en-1-yl)-1,3-benzoxazol-2-yl]azetidin-3-yl}-3-[(1-methyl-1H-pyrazol-4-yl)amino]pyrazine-2-carboxamide]: the figures for the IC50 in test [1], in test [2] and in test [3] were 1.04 nM, less than 1 nM and 72 nM, respectively.
With `Cn1cc(Nc2ncc(C3CN(c4nc5ccc(OCC6CC(CO)C6)cc5o4)C3)nc2C(N)=O)cn1` (stereo not drawn) [Example 56, 6-[1-(6-{[3-(hydroxymethyl)cyclobutyl]methoxy}-1,3-benzoxazol-2-yl)azetidin-3-yl]-3-[(1-methyl-1H-pyrazol-4-yl)amino]pyrazine-2-carboxamide], the IC50 in test [1] is 2 nM; in test [2], less than 1 nM; in test [3], 92 nM.
